Measurements reported in US12357622B2, “Pharmaceutical composition of S1PR modulators” (UNIVERSITA DEGLI STUDI DI FIRENZE, priority 2019, dated 2025).

Key:
Atrogin-1/MAFbx [1] = conditions: C2C12 myotubes, cited from earlier work
C2C12 myotubes [2] = conditions: cited from earlier work
Atrogin-1/MAFbx [3] = test: Western Blotting analysis of Atrogin-1/MAFbx protein levels in C2C12 myotubes (atrophy induced by dexamethasone or TNFα); assay type: cell-based, murine; conditions: for effect on Dexa-induced expression of Atrogin-1/MAFbx (protein) / expression of Atrogin-1/MAFbx (protein): C2C12 myotubes; for effect on Dexa-induced expression of Atrogin-1/MAFbx (protein): modulator(s) added 1 hour before Dexa 100 μM for 48 hours, 2 μM CYM5520, 1 μM VPC23019, 2 μM W146, 2 μM FTY720; for expression of Atrogin-1/MAFbx (protein): modulator(s) in absence of Dexa, 2 μM CYM5520, 1 μM VPC23019, 2 μM W146
Method: (§1) C2C12 murine skeletal myoblasts obtained from the American Type Culture Collection (ATCC, Manassas, VA, USA) were cultured in Dulbecco's Modified Eagle's Medium (DMEM) (Sigma, Milan, Italy) with L-glutamine 1%, penicillin/streptomycin 1% (Sigma, Milan, Italy) and Foetal Bovine Serum 10% (FBS) (Sigma, Milan, Italy). For experiments with the myotubes, myoblasts were seeded in 6-wells plates at a concentration of 0.2×10^6 cells/ml. When the cells reached 90-100% confluence (72 hours after seeding), the medium was replaced with the differentiation medium (DM), consisting of DMEM containing antibiotics, glutamine and horse serum (HS) 2% (Sigma, Milan, Italy). The medium was changed every 24-48 hours. The complete cell differentiation was observed after 4-6 days of incubation with HS 2%. The C2C12 skeletal myotubes were incubated for 24-48 hours with the indicated compounds: Sphingosine 1-phosphate (S1P) 2 μM, or different concentration of CYM5520, VPC23019 and/or W146 (in the concentration range between 0.25 and 2 μM). CYM5478, TY52156 and siRNA specific for S1PR3 (NCBI ref NM_010101.4, sequence 5′-[…]-3 ′1118-1139 SEQ ID NO: 1, same size random oligonucleotides were used as negative control SCR-siRNA) were used in some of the experiments. The agonists/antagonists or S1PR3-siRNA or SCR-siRNA were added to the culture medium for 1 hour prior to treatment of the myotubes with dexamethasone (Dexa) 100 μM for 48 hours.
The Western Blotting analysis was carried out for determining the protein levels of Atrogin-1/MAFbx in C2C12 myotubes. The cells were lysed at 4° C. with RIPA buffer containing TrisHCl 50 mM, pH 7.5, NaCl 120 mM, EDTA 1 mM, EGTA 6 mM, Na4P2O7 15 mM, NaF 20 mM, 1% of cocktail Nonidet and protease inhibitor (1.04 mM AEBSF, 0.08 mM of aprotinin, leupeptin 0.02 mM, bestatin 0.04 mM, pepstatin A […], E-64 […] (Sigma, St. Louis, MO, USA). The lysates were centrifuged at 600× g for 6 min at 4° C., and the proteins concentration was measured by using the Bradford assay (Bio-Rad, Hercules, CA). Aliquots containing 40 μg of proteins were diluted in loading buffer 2× (10% SDS, 50% glycerol, 0.25% bromophenol blue and 0.25 M Tris-HCl, pH 6.8) and boiled at 90° C. for 10 minutes to denature proteins. The samples were subjected to SDS-polyacrylamide 10-12% (SDS-PAGE) gel electrophoresis and to Western blotting on Amersham Hybond p 0.45 PVDF membrane (GE Healthcare, Buckinghamshire, UK). […] After blocking, the membranes were washed in PBST and then incubated overnight with a 1:1000 dilution of the primary antibody comprising rabbit polyclonal antibody with Atrogin-1/MAFbx. After sufficient washings with PBST, the membranes were incubated for 1 hour at room temperature with secondary antibodies conjugated with goat anti-rabbit or goat anti-mouse horseradish peroxidase (Santa Cruz, Texas, USA) at dilution 1:10.000/1:5.000. Following three washings with PBST, the bands corresponding to the immunoreactive proteins were seen by using reagents for the detection of the Western blotting ECL (GE Healthcare, Buckinghamshire, UK); and finally, the membranes were exposed to a high performance chemiluminescence film (GE Healthcare, Buckinghamshire, UK). The identity of the bands on the Western Blot membranes was confirmed by comparing them with a high-precision marker having a known molecular weight (BioRad, Hercules, CA). Densitometric analysis of the bands was performed by using NIH IMAGE J (ImageJ software, Bethesda, MD, USA) and Quantity-One (imaging and analysis software from Bio-Rad Laboratories, Hercules, CA) and the intensity of the band was indicated as a relative percentage (mean and standard deviation from the mean), obtained by calculating the ratio of the specific protein with respect to the β-actin intensity and normalizing it to the control, set to 1.
To test the role of exogenous S1Ps, the terminally differentiated myotubes were treated with the bioactive lipid.

C2C12 myotubes [4] = test: Phase contrast microscopy of cellular morphology of C2C12 myotubes (diameter, number of myonuclei); assay type: cell-based, murine; conditions: for effect on atrophic morphology (myotube diameter, number of myonuclei): modulator(s) before Dexa 100 μM for 48 hours
Method: as §1
The images shown are representative of n. 5-6 observation frames for each treatment.
The C2C12 myoblasts were let to grow on a coverslip and when confluent they were moved on a differentiated medium for 4 days.
The C2C12 myotubes were grown on a coverslip and, when confluent, were moved onto a medium for the differentiation for 4 days. The cells were treated with the above reported combination of the three S1PR modulators before being incubated with Dexa for 48 hours. Then, the cells were fixed and observed with microscope.

S1PR3 receptor = test: Silencing of the expression of the S1PR3 receptor by siRNA in C2C12 myotubes; assay type: cell-based; conditions: incubation with siRNA specific for mouse S1PR3
Method: C2C12 murine skeletal myoblasts obtained from the American Type Culture Collection (ATCC, Manassas, VA, USA) were cultured in Dulbecco's Modified Eagle's Medium (DMEM) (Sigma, Milan, Italy) with L-glutamine 1%, penicillin/streptomycin 1% (Sigma, Milan, Italy) and Foetal Bovine Serum 10% (FBS) (Sigma, Milan, Italy). For experiments with the myotubes, myoblasts were seeded in 6-wells plates at a concentration of 0.2×10^6 cells/ml. When the cells reached 90-100% confluence (72 hours after seeding), the medium was replaced with the differentiation medium (DM), consisting of DMEM containing antibiotics, glutamine and horse serum (HS) 2% (Sigma, Milan, Italy). The medium was changed every 24-48 hours. The complete cell differentiation was observed after 4-6 days of incubation with HS 2%. The C2C12 skeletal myotubes were incubated for 24-48 hours with the indicated compounds: Sphingosine 1-phosphate (S1P) 2 μM, or different concentration of CYM5520, VPC23019 and/or W146 (in the concentration range between 0.25 and 2 μM). CYM5478, TY52156 and siRNA specific for S1PR3 (NCBI ref NM_010101.4, sequence 5′-CGGGGUCCUCUGCAAGUGA-3 ′1118-1139 SEQ ID NO: 1, same size random oligonucleotides were used as negative control SCR-siRNA) were used in some of the experiments. […]

[5] = composition of the invention with CYM5520 replaced by the named compound (2 μM), in the presence of Dexa

Row | Molecule | effect on Dexa-induced expression of Atrogin-1/MAFbx (protein) (Atrogin-1/MAFbx [3]) | expression of Atrogin-1/MAFbx (protein) (Atrogin-1/MAFbx [3]) | effect on atrophic morphology (myotube diameter, number of myonuclei) (C2C12 myotubes [4]; C2C12 myotubes) | also measured
1 | CCCCCCCCCCCCC/C=C/[C@@H](O)[C@@H](N)COP(=O)(O)O [Combination S1P, Sphingosine 1-phosphate] | – | – | – | Atrogin-1/MAFbx level (Atrogin-1/MAFbx [1]; S1P (1 μM) before Dexa 100 μM for 48 hours, FIG. 1 state of the art): reduce the Atrogin-1/MAFbx level, restoring the basal levels; expression of Atrogin-1/MAFbx (Atrogin-1/MAFbx [1]; S1P (1 μM) without Dexa, FIG. 1A state of the art): significantly increase; cell morphology and number of nuclei (C2C12 myotubes [2]; Dexa-treated cells in the presence of S1P, state of the art): no significant changes; morphological parameters of the myotubes (diameter and number of myonuclei) (C2C12 myotubes [2]; S1P without Dexa, FIG. 1B, 1C state of the art): slightly change
2 | CCCCCCCCc1cccc(NC(=O)C(N)COP(=O)(O)O)c1 (stereo not shown) [VPC23019, [2-amino-2-(3-octyl-phenylcarbamoyl)-ethyl] ester of phosphoric acid] | did not counteract the effect of Dexa | did not induce | not significantly reduced | –
3 | Cc1cc(C(=O)Cn2cc(C#N)ccc2=O)c(C)n1Cc1ccccc1 [CYM5520] | only slightly counteracted the GC effect | no increase was observed | not significantly reduced | –
4 | S1PR3-siRNA: double-stranded RNA of 21 nucleotides, SEQ ID NO:1, silencing the expression of the S1PR3 receptor (CGGGGUCCUCUGCAAGUGA; combined with other compounds, further chemistry not given here) [Combination S1PR3-siRNA] | – | – | – | reduction of expression of the S1PR3 protein (S1PR3 receptor): 40%; reduction of expression of the S1PR3 protein (S1PR3 receptor; listed as SEQ ID NO:1): about 40%
5 | CCCCCCc1cccc(NC(=O)[C@H](N)CCP(=O)(O)O)c1 [Combination W146] | did not counteract the effect of Dexa | did not induce | not significantly reduced | –
6 | CCCCCCCCc1ccc(CCC(N)(CO)CO)cc1 [FTY720] | not affected | – | – | formation of autophagic vesicles (morphological analysis) (C2C12 myotubes [4]; C2C12 myotubes, FIG. 3C): promote the formation of small autophagic vesicles
7 | Cc1cc(C(=O)Cn2cc(C(F)(F)F)ccc2=O)c(C)n1Cc1ccccc1 [CYM5478] | – | – | – | effect on expression of Atrogin-1/MAFbx (Atrogin-1/MAFbx [3]; [5]): effect comparable with that obtained with the combination of the invention; effect on cellular morphology (C2C12 myotubes [4]; [5]): effect comparable with that obtained with the combination of the invention
